This passage reports IC50 results from patent publication US10112958B2, “N-[2-(2-amino-6,6-disubstituted-4,4a,5,6-tetrahydropyrano[3,4-d][1,3]thiazin-8a(8H)-YL)-1,3-thiazol-4-YL] amides” (Pfizer Inc., priority 2015, dated 2018).

What is called IC50 is the concentration that gives 50% inhibition.

In the assay the target is T1, BACE1 enzyme (Homo sapiens, UniProt P56817).
T1 construct: transfected with a soluble BACE construct (BACE1deltaTM96His); His (C); made in house; host or cells: CHO-K1 cells (secreted into conditioned media)
T1 sequence (P56817 46-457 limits assumed): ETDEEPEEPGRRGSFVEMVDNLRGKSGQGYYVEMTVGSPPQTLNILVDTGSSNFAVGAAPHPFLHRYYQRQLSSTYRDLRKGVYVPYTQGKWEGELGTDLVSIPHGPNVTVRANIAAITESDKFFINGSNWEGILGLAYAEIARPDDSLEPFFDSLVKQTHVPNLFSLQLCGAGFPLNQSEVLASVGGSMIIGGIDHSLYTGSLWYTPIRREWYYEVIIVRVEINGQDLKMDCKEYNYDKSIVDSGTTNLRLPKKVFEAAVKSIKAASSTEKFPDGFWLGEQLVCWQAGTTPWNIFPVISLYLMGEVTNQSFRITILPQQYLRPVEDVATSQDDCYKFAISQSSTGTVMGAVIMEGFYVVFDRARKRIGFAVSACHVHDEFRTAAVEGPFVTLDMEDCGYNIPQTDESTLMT
Put plainly: BACE1 Cell-Free Assay (fluorescence polarization, cleavage of synthetic APP substrate). The class given is biochemical. The settings on record: geometric mean of 2-4 determinations unless otherwise indicated (b: ≥5 determinations; c: single determination); 0.1 nM BACE1, 150 nM peptide substrate, pH 4.5, 3 hours at 37° C. The text has this: BACE1 Cell-Free Assay: Beta-secretase (BACE) is one of the enzymes involved in the generation of the amyloid beta peptide found in the amyloid plaques of Alzheimer's disease patients. This assay measures the inhibition of the beta-secretase enzyme as it cleaves a non-native peptide.
A synthetic APP substrate that can be cleaved by beta-secretase having N-terminal biotin and made fluorescent by the covalent attachment of Oregon Green at the Cys residue is used to assay beta-secretase activity in the presence or absence of the inhibitory compounds. The substrate is Biotin-GLTNIKTEEISEISY^EVEFR-C[Oregon Green]KK-OH. The BACE1 enzyme is affinity purified material from conditioned media of CHO-K1 cells that have been transfected with a soluble BACE construct (BACE1deltaTM96His). Compounds are incubated in a ½ log dose response curve from a top concentration of 100 μM with BACE1 enzyme and the biotinylated fluorescent peptide in 384-well black plates (Thermo Scientific #4318). BACE1 is at a final concentration of 0.1 nM with a final concentration of peptide substrate of 150 nM in a reaction volume of 30 μL assay buffer [100 mM sodium acetate, pH 4.5 (brought to pH with acetic acid), and 0.001% Tween-20]. Plates are covered and incubated for 3 hours at 37° C. The reaction is stopped with the addition of 30 μL of 1.5 μM Streptavidin (Pierce, #21125). After a 10 minute incubation at room temperature, plates are read on a PerkinElmer EnVision for fluorescence polarization (Ex485 nm/Em530 nm). The activity of the beta-secretase enzyme is detected by changes in the fluorescence polarization that occur when the substrate is cleaved by the enzyme.
Background: Fluorescence polarisation rises when a labelled molecule tumbles more slowly, as on binding a larger partner.
Regarding `CC1(C)C[C@H]2CSC(N)=N[C@@]2(c2nc(NC(=O)c3ccn(C(F)F)n3)cs2)CO1` (single isomer, unassigned) [Example 12], the IC50 turned out to be 22 nM.

`CC#CCOc1ccc(C(=O)Nc2csc([C@@]34COC(C)(C)C[C@@H]3CSC(N)=N4)n2)nc1` (single isomer, unassigned) [Example 1] displayed a half-maximal inhibitory concentration (IC50) of 31000 nM.

For `CC1(C)C[C@H]2CSC(N)=N[C@@]2(c2nc(NC(=O)c3ccc(OC(F)F)cn3)cs2)CO1` [Example 7, N-{2-[(4aR,8aR)-2-amino-6,6-dimethyl-4,4a,5,6-tetrahydropyrano[3,4-d][1,3]thiazin-8a(8H)-yl]-1,3-thiazol-4-yl}-5-(difluoromethoxy)pyridine-2-carboxamide], the IC50 is 116 nM.

In the case of `CC#CCOc1ccc(C(=O)Nc2csc([C@]34COC(C)(C)C[C@H]3CSC(N)=N4)n2)nc1` (single isomer, unassigned) [Example 2], the half-maximal inhibitory concentration (IC50) amounted to 88 nM. The IC50 values of the last two compounds are within 1.5-fold of each other.

Take `CC[C@]1(C)C[C@H]2CSC(N)=N[C@@]2(c2nc(NC(=O)c3ccc(OC(F)F)cn3)cs2)CO1` [Example 27, N-{2-[(4aR,6R,8aR)-2-amino-6-ethyl-6-methyl-4,4a,5,6-tetrahydropyrano[3,4-d][1,3]thiazin-8a(8H)-yl]-1,3-thiazol-4-yl}-5-(difluoromethoxy)pyridine-2-carboxamide]: half-maximal inhibition (IC50) required 1830 nM.

Take `CC[C@@]1(C)C[C@H]2CSC(N)=N[C@@]2(c2nc(NC(=O)c3ncc(OC(F)F)cc3C)cs2)CO1` [Example 36, N-{2-[(4aR,6S,8aR)-2-amino-6-ethyl-6-methyl-4,4a,5,6-tetrahydropyrano[3,4-d][1,3]thiazin-8a(8H)-yl]-1,3-thiazol-4-yl}-5-(difluoromethoxy)-3-methylpyridine-2-carboxamide]: it took 60 nM to reach half-maximal inhibition (IC50).

`NC1=N[C@@]2(c3nc(NC(=O)c4ccc(OC(F)F)cn4)cs3)COC3(CCC3)C[C@H]2CS1` (single isomer, unassigned) [Example 5, N-{2-[(4a′R,8a′R)-2′-amino-4a′,5′-dihydro-4′H-spiro[cyclobutane-1,6′-pyrano[3,4-d] [1,3]thiazin]-8a′(8′H)-yl]-1,3-thiazol-4-yl}-5-(difluoromethoxy)pyridine-2-carboxamide] came in with an IC50 of 138 nM.

Compound `CC1(C)C[C@H]2CSC(N)=N[C@@]2(c2nc(NC(=O)C34CC(C3)C4)cs2)CO1` [Example 33, N-{2-[(4aR,8aR)-2-amino-6,6-dimethyl-4,4a,5,6-tetrahydropyrano[3,4-d][1,3]thiazin-8a(8H)-yl]-1,3-thiazol-4-yl} bicyclo[1.1.1]pentane-1-carboxamide] gave an IC50 of 734 nM. This IC50 is about 5.3-fold higher than that of the compound before.

`CC[C@@]1(C)C[C@H]2CSC(N)=N[C@@]2(c2nc(NC(=O)c3ccc(OC(F)F)cn3)cs2)CO1` [Example 8, N-{2-[(4aR,6S,8aR)-2-amino-6-ethyl-6-methyl-4,4a,5,6-tetrahydropyrano[3,4-d] [1,3]thiazin-8a(8H)-yl]-1,3-thiazol-4-yl}-5-(difluoromethoxy)pyridine-2-carboxamide] registered an IC50 of 41 nM.

In turn, `NC1=N[C@@]2(c3nc(NC(=O)c4ccc(F)cn4)cs3)COC3(CCC3)C[C@H]2CS1` [Example 41, N-{2-[(4a′R,8a′R)-2′-amino-4a′,5′-dihydro-4′H-spiro[cyclobutane-1,6′-pyrano[3,4-d] [1,3]thiazin]-8a′(8′H)-yl]-1,3-thiazol-4-yl}-5-fluoropyridine-2-carboxamide] showed an IC50 of 714 nM. Against the preceding compound, the IC50 is about 17-fold higher.

`NC1=N[C@]2(c3nc(NC(=O)c4ccc(OC(F)F)cn4)cs3)COC3(CCC3)C[C@@H]2CS1` (single isomer, unassigned) [Example 4, N-{2-[(4a′S,8a′S)-2′-amino-4a′,5′-dihydro-4′H-spiro[cyclobutane-1,6′-pyrano[3,4-d] [1,3]thiazin]-8a′(8′H)-yl]-1,3-thiazol-4-yl}-5-(difluoromethoxy)pyridine-2-carboxamide]: the half-inhibitory concentration (IC50) was > 21100 nM.

Compound `CC(F)(F)Oc1ccc(C(=O)Nc2csc([C@]34COC(C)(C)C[C@H]3CSC(N)=N4)n2)nc1` (single isomer, unassigned) [Example 17] displayed an IC50 of 416 nM.

`CC[C@@]1(C)C[C@@H]2CSC(N)=N[C@]2(c2nc(NC(=O)c3ccc(OC(F)F)cn3)cs2)CO1` [Example 26, N-{2-[(4aS,6S,8aS)-2-amino-6-ethyl-6-methyl-4,4a,5,6-tetrahydropyrano[3,4-d][1,3]thiazin-8a(8H)-yl]-1,3-thiazol-4-yl}-5-(difluoromethoxy)pyridine-2-carboxamide] registered a half-maximal inhibitory concentration (IC50) of 406 nM.
